Article PMC3958426, “Prolonged Calcitonin Receptor Signaling by Salmon, but Not Human Calcitonin, Reveals Ligand Bias” (PLoS ONE, 2014)

What was measured:
[1] = biological target: T1, human calcitonin receptor (CT(a)R), U2OS CALCR membranes (Homo sapiens, UniProt P30988); test: Ligand association on isolated U2OS CALCR membranes; type: binding; details: ^125I ligand 0.25 nM; for association constant KON, membranes: room temperature (∼22°C), 20 mM HEPES, 1 mM CaCl2, 5 mM MgCl2, nonspecific with 250 nM unlabeled sCT, triplicate, mean ± SEM; for time to plateau of specific binding, membranes: ∼22°C
T1 construct: host or cells: U2OS (PathHunter U2OS CALCR β-arrestin cell line)
T1 sequence (P30988 25-474): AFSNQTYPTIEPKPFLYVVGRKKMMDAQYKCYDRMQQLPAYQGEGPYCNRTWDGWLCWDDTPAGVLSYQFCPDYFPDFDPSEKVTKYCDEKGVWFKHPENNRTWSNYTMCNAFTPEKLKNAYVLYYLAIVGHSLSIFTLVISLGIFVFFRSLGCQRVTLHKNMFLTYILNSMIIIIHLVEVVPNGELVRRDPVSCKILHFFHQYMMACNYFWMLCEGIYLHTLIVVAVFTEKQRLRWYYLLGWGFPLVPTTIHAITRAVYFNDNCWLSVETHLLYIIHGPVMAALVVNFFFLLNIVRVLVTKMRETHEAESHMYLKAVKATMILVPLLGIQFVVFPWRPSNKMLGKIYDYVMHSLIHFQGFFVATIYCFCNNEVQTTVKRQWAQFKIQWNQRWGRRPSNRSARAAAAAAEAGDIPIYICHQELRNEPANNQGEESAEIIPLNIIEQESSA
Experimental: The binding kinetics of ^125I-(Tyr 22)-sCT and ^125I-(Tyr 12)-hCT were assessed using isolated membranes from Cos-7 CT(a)R or U2OS CALCR. Concentration of radio-labeled ligand was 0.25 nM unless otherwise specified. Membranes were isolated and purified as previously described. Membrane protein content was determined with a NanoDrop 1000 (Thermo Scientific). In general, radio-labeled ligand and membrane were mixed in binding buffer (20 mM HEPES, 1 mM CaCl2, 5 mM MgCl2) with complete protease inhibitor (11836170001, Roche), each condition in triplicate, in 96-well plates and incubation at room temperature (∼22°C) with shaking. Ligand association: The radio-labeled ligand was incubated with the membrane and the membrane-bound radioactivity was determined as described above at specific time points 2½, 5, 10, 20, 40, 80 and 160 min. Nonspecific binding was determined at each time point with co-incubation of 250 nM unlabeled sCT. Ligand dissociation: The radio-labeled ligand and membrane were incubated for one hour to allow ligand-receptor saturation. Dissociation was monitored following the addition of 250 nM unlabeled sCT to prevent rebinding of dissociated radio-ligand. The membrane-bound radioactivity (total binding) was determined at time 0, 1, 2, 4, 6, 24, 48 and 72 h after the initiation of dissociation. Competitive ligand binding: The radio-labeled ligand and membrane were co-incubated with one of seven different concentrations of corresponding unlabeled ligand (1 μM sCT or hCT with a fivefold dilution row) for one hour. Post incubation sample extraction: The binding mixtures were transferred to 1.5 ml Eppendorf tubes and centrifuged at 17,000 g (4°C for 5 min). Membrane pellets were washed with cold binding buffer, resuspended and then re-centrifuged (17,000 g, 4°C for 5 min).
(§1) Samples, resuspended pellet or solubilized cell membrane, were transferred to borosilicate tubes and bound radioactivity was measured using a 1470 Wallac Wizard Gamma Counter.

[2] = biological target: T2, human calcitonin receptor (CT(a)R), U2OS CALCR cells (Homo sapiens, UniProt P30988); test: Ligand association on live U2OS CALCR cells; type: binding; details: 37°C
T2 construct: host or cells: U2OS (PathHunter U2OS CALCR β-arrestin cell line)
T2 sequence (P30988 25-474): T1 sequence (P30988 25-474)
Experimental: 15,000 U2OS CALCR cells/well were seeded into 96 well culture plates the day prior to the experiment. All cell based binding kinetics studies were made identical in terms of ‘hot’ and ‘cold’ ligand concentrations and incubation times to match membrane studies. Post incubation sample extraction: The binding mixture and cells were mixed in culture medium in triplicates in 96-well plates and incubated at 37°C. At the end of the incubation, the binding mixture was removed and cells were washed three times in PBS to remove residual unbound ligand. 200 μL 0.5 M NaOH was added to each well and cells were allowed to solubilize for at least 20 min.
as §1

[3] = cited from earlier work
Description: (§2) The calcitonins (CT) are a group of evolutionary conserved 32 amino acid peptide hormones, which have been isolated from many different species over the last 50 years and divided into several distinct groups based on structure and sequence. The calcitonins bind to the calcitonin receptor (CT(a)R), which belongs to the class B subfamily of G-protein coupled receptors (GPCRs), [3].

[4] = tested on: amylin receptor (AMY-R); details: isolated membranes; cited from earlier work
Description: as §2

[5] = tested on: CT(a)R; details: live cells; cited from earlier work
Description: as §2, with “[3]. […] […].” for “[3].”

Substance | association constant KON, membranes [1] | time to plateau of specific binding, membranes [1] [min] | peak binding, live cells, ^125I-hCT vs ^125I-sCT [2] | time to plateau of specific binding, live cells ([2]; ^125I ligand 0.25 nM) [min] | association constant KON, live cells ([2]; ^125I ligand 0.25 nM, triplicate, mean ± SEM) | duration of biological activity in vivo [3] | dissociation from the amylin receptor [4] | specific binding after 180 min compared to 20 min, live cells ([2]; ^125I ligand 0.25 nM) [%] | time of maximal specific binding, live cells ([2]; ^125I ligand 0.25 nM) [min] | reversibility of binding [5]
^125I-(Tyr22)-sCT [^125I-sCT] | 3.1±0.5×10^9 M^−1min^−1 | ~8 | similar | 180 | 1.1±0.1×10^8 M^−1min^−1 | – | – | – | – | –
davalintide | – | – | – | – | – | prolonged biological activity in vivo | dissociated very slowly | – | – | –
^125I-(Tyr12)-hCT [^125I-hCT] | 2.1±0.3×10^9 M^−1min^−1 | ~8 | similar | – | – | – | – | < 20 | 20 | fully reversible
amylin (KCNTATCATQRLANFLVHSSNNFGAILSSTNVGSNTY; Islet amyloid polypeptide; UniProt P10997 34-70, looked up) | – | – | – | – | – | – | fully reversible | – | – | –
